Experimental data: ChEMBL document CHEMBL4665837, “Soluble guanylate cyclase stimulators for the treatment of hypertension: Discovery of MK-2947” (Bioorg Med Chem Lett, 2020)

How the values were obtained:
[1] = Oral bioavailability in rat at 2 mg/kg; format: ADME, organism-based; conditions: in vivo
[2] = Half life in rat at 1 mg/kg, iv and 2 mg/kg, po; format: ADME, organism-based; conditions: in vivo
[3] = Total Plasma clearance in Sprauge-Dawley rat; format: ADME; conditions: Sprague-Dawley
[4] = AUCt/dose in Sprauge-Dawley rat; format: ADME; conditions: in vivo
[5] = Half life in Sprauge-Dawley rat; format: ADME; conditions: Sprague-Dawley, in vivo
[6] = Oral bioavailability in Sprauge-Dawley rat; format: ADME, organism-based; conditions: Sprague-Dawley, in vivo
[7] = Drug level in SRH rat plasma a 1 mg/kg , po measured after 4 hrs; format: ADME, organism-based
[8] = Drug level in SRH rat plasma at 3 mg/kg , po measured after 4 hrs; format: ADME, organism-based
[9] = Drug level in SRH rat plasma at 0.3 mg/kg , po measured after 4 hrs; format: ADME, organism-based
[10] = Oral bioavailability in monkey at 2 mg/kg, po; format: ADME, organism-based, Macaca mulatta; conditions: rhesus monkey, in vivo
[11] = Half life in monkey at 0.5 mg/kg, iv and 2 mg/kg, po; format: ADME, organism-based, Macaca mulatta; conditions: rhesus monkey, in vivo
[12] = Clearance in monkey at 0.5 mg/kg, iv and 2 mg/kg, po; format: ADME, organism-based, Macaca mulatta; conditions: rhesus monkey, in vivo
[13] = Oral bioavailability in dog at 10 mg/kg; format: ADME, organism-based, Canis lupus familiaris; conditions: in vivo
[14] = Half life in dog at 1 mg/kg, iv and 10 mg/kg, po; format: ADME, organism-based, Canis lupus familiaris; conditions: in vivo
[15] = Clearance in dog at 1 mg/kg, iv and 10 mg/kg, po; format: ADME, organism-based, Canis lupus familiaris; conditions: in vivo
[16] = Half life in rat at 2 mg/kg, po; format: ADME, organism-based; conditions: in vivo
[17] = Clearance in rat at 1 mg/kg, iv and 2 mg/kg, po; format: ADME, organism-based; conditions: in vivo

COC(=O)N(C)c1c(N)nc(-c2nc(Cc3ccccc3F)n3ccccc23)nc1N
bioavailability [1]: 15% | half-life [2]: 0.9 h

COC(=O)N(C)c1c(N)nc(-n2nc(Cc3c(F)ccc(F)c3F)c3cc(Cl)ccc32)nc1N
clearance [3]: 0.9 mL/min/kg | AUCt/dose [4]: 18 µM·kg·h/mg | half-life [5]: 3.6 h | bioavailability [6]: 51%

COC(=O)N(C)c1c(N)nc(-c2nc(Cc3ccccc3F)n3ncccc23)nc1N
bioavailability [1]: 4% | half-life [2]: 0.6 h

COC(=O)N(C)c1c(N)nc(-n2nc(Cc3c(F)ccc(F)c3F)c3ccccc32)nc1N
clearance [3]: 1.6 mL/min/kg | AUCt/dose [4]: 15.3 µM·kg·h/mg | half-life [5]: 2.2 h | bioavailability [6]: 68%

COC(=O)N(C)c1c(N)nc(-n2nc(Cc3ccccc3F)c3cc(F)ccc32)nc1N
clearance [3]: 1.4 mL/min/kg | AUCt/dose [4]: 4.6 µM·kg·h/mg | half-life [5]: 1.5 h | bioavailability [6]: 22%

COC(=O)Nc1c(N)nc(-n2nc(Cc3c(F)ccc(F)c3F)c3cc(Cl)ccc32)nc1N
AUCt/dose [4]: 25.2 µM·kg·h/mg | bioavailability [6]: 37%

CC1(C)C(=O)Nc2nc(-n3nc(CCC(F)(F)F)c4cc(Cl)ccc43)nc(N)c21
concentration at 4 h [7]: 145 nM | concentration at 4 h [8]: 392 nM | concentration at 4 h [9]: 36 nM | bioavailability [10]: 63% | half-life [11]: 1.4 h | clearance [12]: 34 mL/min/kg | bioavailability [13]: 21% | half-life [14]: 1.3 h | clearance [15]: 39 mL/min/kg | half-life [16]: 2.6 h | clearance [17]: 29 mL/min/kg | bioavailability [1]: 80%

COC(=O)N(C)c1c(N)nc(-n2nc(Cc3ccccc3F)c3ccccc32)nc1N
bioavailability [1]: 32% | half-life [2]: 0.9 h
